Assay results from ChEMBL document CHEMBL3885861, “Open TG-GATES”.
*1 amine or outer side, *2 acyl side, *3 side chain or, on linkers, in order; H or OH if unused. Where a SMILES comes first, the peptide text is derived from it. Bridges are numbered along the chain shown (N, C = ends). [ ]: non-standard residue; d: D form. Trp(2-yl) = O=C([C@H](Cc1c([*:3])[nH]c2ccccc12)N[*:1])[*:2]; Leu(4R-OH,5-OH) = C[C@](O)(CO)C[C@H](N)C(=O)O; cisHyp = O=C(O)[C@@H]1C[C@H](O)CN1

Species: Rattus norvegicus
Assay: Open TG-GATES - Regimen: Daily Repeat
Format: toxicity, organism-based, Sprague-Dawley
Set-up: regimen Daily Repeat, gender Male, age 6 weeks
Settings: in vivo, ip, route intraperitoneal injection; for APTT / Bas / Eos / Fbg / Hb / Ht / Lym / MCH / MCHC / MCV / Mono / Neu / PT / Plat / RBC / Ret / WBC: tissue Blood; for KIDNEY_L / KIDNEY_R / KIDNEY_TOTAL: tissue Kidney; for LIVER: tissue Liver; for A/G / ALP / ALT / AST / BUN / CRE / Ca / Cl / DBIL / GLC / IP / K / LDH / Na / PL / RALB / TBIL / TC / TG / TP / gamma-GTP: tissue Plasma
[1] = 0 mg/kg, 72 h, dose level Control, time 3 day
[2] = 0 mg/kg, […], dose level Control, time 7 day
[3] = 1 mg/kg, 72 h, dose level High, time 3 day
[4] = 1 mg/kg, […], dose level High, time 7 day

Structure (SMILES): C[C@@H]1NC(=O)[C@H](C[C@@](C)(O)CO)NC(=O)[C@@H]2Cc3c([nH]c4ccccc34)SC[C@H](NC(=O)[C@@H]([C@H](C)O)NC1=O)C(=O)N1C[C@@H](O)C[C@H]1C(=O)N[C@@H](C)C(=O)N2 [PHALLOIDIN] (cyclo(A[dT]C[cisHyp]A[Trp(2-yl)][Leu(4R-OH,5-OH)]); thioether 3-6)
- TERMINAL_BW [1]: 224.8 g
- APTT [1]: 23.1 s
- Bas [1]: 0%
- Eos [1]: 1%
- Fbg [1]: 328 mg/dL
- Hb [1]: 13 g/dL
- Ht [1]: 40.4%
- Lym [1]: 83%
- MCH [1]: 20.5 pg
- MCHC [1]: 32.2%
- MCV [1]: 63.5 fL
- Mono [1]: 2.8%
- Neu [1]: 12.6%
- PT [1]: 16.3 s
- Plat [1]: 118.5 x10_4/uL
- RBC [1]: 636.6 x10_4/ul
- Ret [1]: 6.8%
- WBC [1]: 113.9 x10_2/uL
- KIDNEY_L [1]: 1 g
- KIDNEY_R [1]: 1 g
- KIDNEY_TOTAL [1]: 1.9 g
- LIVER [1]: 10.4 g
- A/G [1]: 1.3
- ALP [1]: 1525.8 IU/L
- ALT [1]: 42 IU/L
- AST [1]: 66.8 IU/L
- BUN [1]: 17.4 mg/dL
- CRE [1]: 0.2 mg/dL
- Ca [1]: 10.8 mg/dL
- Cl [1]: 105.4 meq/L
- DBIL [1]: 0 mg/dL
- GLC [1]: 201.4 mg/dL
- IP [1]: 8.4 mg/dL
- K [1]: 4.7 meq/L
- LDH [1]: 177.6 IU/L
- Na [1]: 140.8 meq/L
- PL [1]: 139.6 mg/dL
- RALB [1]: 3.1 g/dL
- TBIL [1]: 0 mg/dL
- TC [1]: 78 mg/dL
- TG [1]: 116.4 mg/dL
- TP [1]: 5.5 g/dL
- gamma-GTP [1]: 1.6 IU/L
- TERMINAL_BW [2]: 261.3 g
- APTT [2]: 23.5 s
- Bas [2]: 0%
- Eos [2]: 1%
- Fbg [2]: 322.2 mg/dL
- Hb [2]: 12.9 g/dL
- Ht [2]: 39.5%
- Lym [2]: 80%
- MCH [2]: 20.4 pg
- MCHC [2]: 32.6%
- MCV [2]: 62.5 fL
- Mono [2]: 1.8%
- Neu [2]: 16.2%
- PT [2]: 15.6 s
- Plat [2]: 135.8 x10_4/uL
- RBC [2]: 632.2 x10_4/ul
- Ret [2]: 6.8%
- WBC [2]: 114.9 x10_2/uL
- KIDNEY_L [2]: 1.1 g
- KIDNEY_R [2]: 1.2 g
- KIDNEY_TOTAL [2]: 2.3 g
- LIVER [2]: 11.8 g
- A/G [2]: 1.2
- ALP [2]: 1235.4 IU/L
- ALT [2]: 36.6 IU/L
- AST [2]: 63.4 IU/L
- BUN [2]: 18 mg/dL
- CRE [2]: 0.2 mg/dL
- Ca [2]: 10.4 mg/dL
- Cl [2]: 105.8 meq/L
- DBIL [2]: 0 mg/dL
- GLC [2]: 189.8 mg/dL
- IP [2]: 8.2 mg/dL
- K [2]: 4.4 meq/L
- LDH [2]: 160.4 IU/L
- Na [2]: 142.6 meq/L
- PL [2]: 130.8 mg/dL
- RALB [2]: 2.9 g/dL
- TBIL [2]: 0.008 mg/dL
- TC [2]: 75 mg/dL
- TG [2]: 88.6 mg/dL
- TP [2]: 5.4 g/dL
- gamma-GTP [2]: 2.8 IU/L
- TERMINAL_BW [3]: 218.4 g
- APTT [3]: 19.4 s
- Bas [3]: 0%
- Eos [3]: 1.2%
- Fbg [3]: 270.8 mg/dL
- Hb [3]: 13.5 g/dL
- Ht [3]: 42.3%
- Lym [3]: 78.2%
- MCH [3]: 20.3 pg
- MCHC [3]: 32%
- MCV [3]: 63.4 fL
- Mono [3]: 3.2%
- Neu [3]: 16.8%
- PT [3]: 15.5 s
- Plat [3]: 119.3 x10_4/uL
- RBC [3]: 667.2 x10_4/ul
- Ret [3]: 6.7%
- WBC [3]: 88.5 x10_2/uL
- KIDNEY_L [3]: 1.1 g
- KIDNEY_R [3]: 1.1 g
- KIDNEY_TOTAL [3]: 2.1 g
- LIVER [3]: 12 g
- A/G [3]: 1.1
- ALP [3]: 2057 IU/L
- ALT [3]: 49 IU/L
- AST [3]: 85.6 IU/L
- BUN [3]: 13.2 mg/dL
- CRE [3]: 0.1 mg/dL
- Ca [3]: 11.1 mg/dL
- Cl [3]: 105.4 meq/L
- DBIL [3]: 0.066 mg/dL
- GLC [3]: 168.8 mg/dL
- IP [3]: 8.3 mg/dL
- K [3]: 5.2 meq/L
- LDH [3]: 169.2 IU/L
- Na [3]: 140.4 meq/L
- PL [3]: 153.6 mg/dL
- RALB [3]: 3 g/dL
- TBIL [3]: 0.084 mg/dL
- TC [3]: 107.4 mg/dL
- TG [3]: 24.2 mg/dL
- TP [3]: 5.8 g/dL
- gamma-GTP [3]: 1.6 IU/L
- TERMINAL_BW [4]: 244 g
- APTT [4]: 17.6 s
- Bas [4]: 0%
- Eos [4]: 1.2%
- Fbg [4]: 254.4 mg/dL
- Hb [4]: 13.7 g/dL
- Ht [4]: 41.8%
- Lym [4]: 79.6%
- MCH [4]: 19.6 pg
- MCHC [4]: 32.9%
- MCV [4]: 59.6 fL
- Mono [4]: 3%
- Neu [4]: 15.8%
- PT [4]: 14.8 s
- Plat [4]: 150.8 x10_4/uL
- RBC [4]: 702.8 x10_4/ul
- Ret [4]: 4.1%
- WBC [4]: 147.5 x10_2/uL
- KIDNEY_L [4]: 1.1 g
- KIDNEY_R [4]: 1.1 g
- KIDNEY_TOTAL [4]: 2.2 g
- LIVER [4]: 13.9 g
- A/G [4]: 0.8
- ALP [4]: 2253.4 IU/L
- ALT [4]: 86.2 IU/L
- AST [4]: 202.2 IU/L
- BUN [4]: 15 mg/dL
- CRE [4]: 0.1 mg/dL
- Ca [4]: 10.7 mg/dL
- Cl [4]: 104.6 meq/L
- DBIL [4]: 0.3 mg/dL
- GLC [4]: 177.8 mg/dL
- IP [4]: 7.3 mg/dL
- K [4]: 4.8 meq/L
- LDH [4]: 258.2 IU/L
- Na [4]: 141 meq/L
- PL [4]: 168 mg/dL
- RALB [4]: 2.6 g/dL
- TBIL [4]: 0.4 mg/dL
- TC [4]: 115.6 mg/dL
- TG [4]: 28.6 mg/dL
- TP [4]: 5.8 g/dL
- gamma-GTP [4]: 3.2 IU/L
